Source: US5204475A, “Substituted 3-aminosydnone imines and salts thereof” (Cassella Aktiengesellschaft, priority 1990, dated 1993)
pIC50: −log10 of the molar value.

Test system: spiral strips of the pulmonary artery of the guinea-pig
Test: Relaxation of potassium-depolarised, CaCl2-contracted spiral strips of the pulmonary artery of the guinea-pig (modified method of Godfraind and Kaba and of Schuman et al.)
Details: depolarised with 40 mmol/1 potassium, contraction by 0.5 mmol/1 CaCl2; for pIC50: Cavia porcellus, cumulative addition, average of 4 to 6 vessel strips, read-out: IC50 (concentration of the test substance which inhibits the contraction by 50%)
Protocol: The pharmacological action of the compounds of the formula I was determined by a modified method of Godfraind and Kaba (Arch. Int. Pharmacodyn. Ther. I96, (Suppl) 35 to 49, 1972) and of Schuman et al. (Naunyn-Schmiedeberg's Arch Pharmacol. 289, 409 to 418, 1975). In this connection, spiral strips of the pulmonary artery of the guinea-pig are depolarised with 40 mmol/1 of potassium after equilibration in calcium-free Tyrode solution. An addition of 0.5 mmol/1 of CaCl2 then induces a contraction. The relaxing action of the test substance is determined by cumulative addition in 1/2 log 10 stepped concentrations. From the concentration-effect curve (abscissa: -log mol/1 of test substance, ordinate: % inhibition of the maximum contraction, average value of 4 to 6 vessel strips), the concentration of the test substance is determined which inhibits the contraction by 50% (=IC50, mol/1). The duration of action of the test substance is given by the time which is needed after the addition of the test substance until the starting value is obtained again.

| pIC50 | SMILES | Duration of action in minutes (time needed after addition of the test substance until the starting value is obtained again) |
| --- | --- | --- |
| 4.62 | Cl.N=c1c[n+](N2CCC(C(=O)O)CC2)[n-]o1 [Example 2, 3-(4-Carboxypiperidino)sydnone imine hydrochloride] | > 300 min |
| 4.70 | Cl.N=c1c[n+](N2CCC[C@H]2C(=O)O)[n-]o1 [Example 3, (S)-3-(2-Carboxypyrrolidino)sydnone imine hydrochloride] | > 300 min |
| 5.22 | Cl.N=c1c[n+](N2CCCCC2C(=O)O)[n-]o1 (stereo not drawn) [Example 1, 3-(2-Carboxypiperidino)sydnone imine hydrochloride] | > 300 min |
